The first assay has as its target T1, calcitonin receptors (CTR) (Homo sapiens, UniProt P30988).
T1 construct: expressed in transfected cells; host or cells: cAMP Hunter HEK293-CT-R Gs cell line (HEK293, stably transfected)
T1 sequence (P30988 25-474): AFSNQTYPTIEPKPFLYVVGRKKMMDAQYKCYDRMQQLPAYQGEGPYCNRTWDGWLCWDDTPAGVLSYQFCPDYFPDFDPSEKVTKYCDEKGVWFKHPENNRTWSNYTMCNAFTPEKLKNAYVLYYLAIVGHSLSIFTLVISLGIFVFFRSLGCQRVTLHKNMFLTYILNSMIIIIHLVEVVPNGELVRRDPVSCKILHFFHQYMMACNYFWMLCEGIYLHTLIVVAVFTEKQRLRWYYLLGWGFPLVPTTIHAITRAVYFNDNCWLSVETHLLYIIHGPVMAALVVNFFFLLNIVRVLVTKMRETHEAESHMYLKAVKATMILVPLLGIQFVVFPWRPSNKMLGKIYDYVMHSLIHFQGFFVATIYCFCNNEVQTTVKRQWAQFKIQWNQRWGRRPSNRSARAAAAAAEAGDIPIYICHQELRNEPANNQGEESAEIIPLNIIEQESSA
The assay can be described thus: cAMP determination (HTRF, cAMP Dynamic 2 Kit) in cAMP Hunter HEK293-CT-R Gs cell line. As to conditions: HEK293 cell line stably expressing CT-R; intracellular cAMP, HTRF. The class given is cell-based. The source says:
Upon activation by a ligand, Gas-coupled GPCRs can upregulate intracellular cAMP level, and cAMP, as a second messenger, can mediate a series of cellular responses. The cAMP Hunter HEK293-CT-R Gs cell line, which overexpresses Gas-coupled calcitonin receptors (CTR), was used. The binding of calcitonin (or an analog thereof) to the overexpressed CTR upregulates intracellular cAMP level. The amount of intracellular cAMP produced after activation by the calcitonin (or an analog thereof) was detected using a cAMP Dynamic 2 Kit to evaluate the biological activity of the calcitonin (or an analog thereof). HEK293 cell line stably expressing CT-R was used. Stably transfected cells were stimulated with various concentrations of agonists. The time-resolved fluorescence resonance energy signal from the cells after stimulation with different doses was measured using HTRF technology, from which the biological activity of the agonist was subsequently calculated.
Consider `CC(C)C[C@H](NC(=O)[C@H](CCCCN)NC(=O)CNC(=O)[C@H](CC(C)C)NC(=O)[C@@H](NC(=O)[C@@H]1CSSC[C@H](N)C(=O)N[C@@H](CO)C(=O)N[C@@H](CC(N)=O)C(=O)N[C@@H](CC(C)C)C(=O)N[C@@H](CO)C(=O)N[C@@H]([C@@H](C)O)C(=O)N1)C(C)C)C(=O)N[C@@H](CO)C(=O)N[C@@H](CCC(N)=O)C(=O)N[C@@H](CCC(=O)O)C(=O)N[C@@H](CC(C)C)C(=O)N[C@@H](Cc1c[nH]cn1)C(=O)N[C@@H](CCCCNC(=O)CNC(=O)CNC(=O)[C@H](CO)NC(=O)CNC(=O)[C@H](CO)NC(=O)CNC(=O)[C@H](CO)NC(=O)CNC(=O)CC[C@H](NC(=O)CCCCCCCCCCCCCCCCCCC(=O)O)C(=O)O)C(=O)N[C@@H](CC(C)C)C(=O)N[C@@H](CCC(N)=O)C(=O)N[C@H](C(=O)N[C@@H](Cc1ccc(O)cc1)C(=O)N1CCC[C@H]1C(=O)N[C@@H](CCCNC(=N)N)C(=O)N[C@H](C(=O)N[C@@H](CC(N)=O)C(=O)N[C@H](C(=O)NCC(=O)N[C@@H](CO)C(=O)NCC(=O)N[C@H](C(=O)N1CCC[C@H]1C(N)=O)[C@@H](C)O)[C@@H](C)O)[C@@H](C)O)[C@@H](C)O` [Compound 9], for which the EC50 (in general, the concentration needed to bring the measured effect to its halfway point) was found to be 4.1 pM. On the same count and under the same terms, in the case of `CC(C)C[C@H](NC(=O)[C@H](CCCCN)NC(=O)CNC(=O)[C@H](CC(C)C)NC(=O)[C@@H](NC(=O)[C@@H]1CSSC[C@H](N)C(=O)N[C@@H](CO)C(=O)N[C@@H](CC(N)=O)C(=O)N[C@@H](CC(C)C)C(=O)N[C@@H](CO)C(=O)N[C@@H]([C@@H](C)O)C(=O)N1)C(C)C)C(=O)N[C@@H](CO)C(=O)N[C@@H](CCC(N)=O)C(=O)N[C@@H](CCC(=O)O)C(=O)N[C@@H](CC(C)C)C(=O)N[C@@H](Cc1c[nH]cn1)C(=O)N[C@@H](CCCCNC(=O)CNC(=O)CNC(=O)CNC(=O)CNC(=O)CNC(=O)CC[C@H](NC(=O)CCCCCCCCCCCCCCCCCCC(=O)O)C(=O)O)C(=O)N[C@@H](CC(C)C)C(=O)N[C@@H](CCC(N)=O)C(=O)N[C@H](C(=O)N[C@@H](Cc1ccc(O)cc1)C(=O)N1CCC[C@H]1C(=O)N[C@@H](CCCNC(=N)N)C(=O)N[C@H](C(=O)N[C@@H](CC(N)=O)C(=O)N[C@H](C(=O)NCC(=O)N[C@@H](CO)C(=O)NCC(=O)N[C@H](C(=O)N1CCC[C@H]1C(N)=O)[C@@H](C)O)[C@@H](C)O)[C@@H](C)O)[C@@H](C)O` [Compound 14] it was 3.1 pM; in that of `CC(C)C[C@H](NC(=O)[C@H](CCCCN)NC(=O)CNC(=O)[C@H](CC(C)C)NC(=O)[C@@H](NC(=O)[C@@H]1CSSC[C@H](N)C(=O)N[C@@H](CO)C(=O)N[C@@H](CC(N)=O)C(=O)N[C@@H](CC(C)C)C(=O)N[C@@H](CO)C(=O)N[C@@H]([C@@H](C)O)C(=O)N1)C(C)C)C(=O)N[C@@H](CO)C(=O)N[C@@H](CCC(N)=O)C(=O)N[C@@H](CCC(=O)O)C(=O)N[C@@H](CC(C)C)C(=O)N[C@@H](Cc1c[nH]cn1)C(=O)N[C@@H](CCCCNC(=O)CNC(=O)CNC(=O)CNC(=O)CNC(=O)CC[C@H](NC(=O)CCCCCCCCCCCCCCCCCCC(=O)O)C(=O)O)C(=O)N[C@@H](CC(C)C)C(=O)N[C@@H](CCC(N)=O)C(=O)N[C@H](C(=O)N[C@@H](Cc1ccc(O)cc1)C(=O)N1CCC[C@H]1C(=O)N[C@@H](CCCNC(=N)N)C(=O)N[C@H](C(=O)N[C@@H](CC(N)=O)C(=O)N[C@H](C(=O)NCC(=O)N[C@@H](CO)C(=O)NCC(=O)N[C@H](C(=O)N1CCC[C@H]1C(N)=O)[C@@H](C)O)[C@@H](C)O)[C@@H](C)O)[C@@H](C)O` [Compound 13], 3.5 pM. The same measure, in the same setting: in the case of `CC(C)C[C@H](NC(=O)[C@H](CCCCN)NC(=O)CNC(=O)[C@H](CC(C)C)NC(=O)[C@@H](NC(=O)[C@@H]1CSSC[C@H](N)C(=O)N[C@@H](CO)C(=O)N[C@@H](CC(N)=O)C(=O)N[C@@H](CC(C)C)C(=O)N[C@@H](CO)C(=O)N[C@@H]([C@@H](C)O)C(=O)N1)C(C)C)C(=O)N[C@@H](CO)C(=O)N[C@@H](CCC(N)=O)C(=O)N[C@@H](CCC(=O)O)C(=O)N[C@@H](CC(C)C)C(=O)N[C@@H](Cc1c[nH]cn1)C(=O)N[C@@H](CCCCNC(=O)CNC(=O)CNC(=O)CNC(=O)CNC(=O)CNC(=O)CNC(=O)CC[C@H](NC(=O)CCCCCCCCCCCCCCCCCCC(=O)O)C(=O)O)C(=O)N[C@@H](CC(C)C)C(=O)N[C@@H](CCC(N)=O)C(=O)N[C@H](C(=O)N[C@@H](Cc1ccc(O)cc1)C(=O)N1CCC[C@H]1C(=O)N[C@@H](CCCNC(=N)N)C(=O)N[C@H](C(=O)N[C@@H](CC(N)=O)C(=O)N[C@H](C(=O)NCC(=O)N[C@@H](CO)C(=O)NCC(=O)N[C@H](C(=O)N1CCC[C@H]1C(N)=O)[C@@H](C)O)[C@@H](C)O)[C@@H](C)O)[C@@H](C)O` [Compound 15] it was 6.5 pM.

The assay is the same for the next values; noted with them: relative to Salmon Calcitonin = 100.0; HEK293 CT-R cAMP.
In the case of `CC(C)C[C@H](NC(=O)[C@H](CCCCN)NC(=O)CNC(=O)[C@H](CC(C)C)NC(=O)[C@@H](NC(=O)[C@@H]1CSSC[C@H](N)C(=O)N[C@@H](CO)C(=O)N[C@@H](CC(N)=O)C(=O)N[C@@H](CC(C)C)C(=O)N[C@@H](CO)C(=O)N[C@@H]([C@@H](C)O)C(=O)N1)C(C)C)C(=O)N[C@@H](CO)C(=O)N[C@@H](CCC(N)=O)C(=O)N[C@@H](CCC(=O)O)C(=O)N[C@@H](CC(C)C)C(=O)N[C@@H](Cc1c[nH]cn1)C(=O)N[C@@H](CCCCNC(=O)COCCOCCOCCNC(=O)CC[C@H](NC(=O)CCCCCCCCCCCCCCCCCCC(=O)O)C(=O)O)C(=O)N[C@@H](CC(C)C)C(=O)N[C@@H](CCC(N)=O)C(=O)N[C@H](C(=O)N[C@@H](Cc1ccc(O)cc1)C(=O)N1CCC[C@H]1C(=O)N[C@@H](CCCNC(=N)N)C(=O)N[C@H](C(=O)N[C@@H](CC(N)=O)C(=O)N[C@H](C(=O)NCC(=O)N[C@@H](CO)C(=O)NCC(=O)N[C@H](C(=O)N1CCC[C@H]1C(N)=O)[C@@H](C)O)[C@@H](C)O)[C@@H](C)O)[C@@H](C)O` [Compound 3, Cys-Ser-Asn-Leu-Ser-Thr-Cys-Val-Leu-Gly-Lys-Leu-Ser-Gln-Glu-Leu-His-Lys(PEG3CH2CO-yGlu-eicosanedioic acid)-Leu-Gln-Thr-Tyr-Pro-Arg-Thr-Asn-Thr-Gly-Ser-Gly-Thr-Pro-NH2], the “Relative Activity%” value is 256.8%.

With `CC(C)C[C@H](NC(=O)[C@H](CCCCN)NC(=O)CNC(=O)[C@H](CC(C)C)NC(=O)[C@@H](NC(=O)[C@@H]1CSSC[C@H](N)C(=O)N[C@@H](CO)C(=O)N[C@@H](CC(N)=O)C(=O)N[C@@H](CC(C)C)C(=O)N[C@@H](CO)C(=O)N[C@@H]([C@@H](C)O)C(=O)N1)C(C)C)C(=O)N[C@@H](CO)C(=O)N[C@@H](CCC(N)=O)C(=O)N[C@@H](CCC(=O)O)C(=O)N[C@@H](CC(C)C)C(=O)N[C@@H](Cc1c[nH]cn1)C(=O)N[C@@H](CCCCNC(=O)COCCNC(=O)CC[C@H](NC(=O)CCCCCCCCCCCCCCCCCCC(=O)O)C(=O)O)C(=O)N[C@@H](CC(C)C)C(=O)N[C@@H](CCC(N)=O)C(=O)N[C@H](C(=O)N[C@@H](Cc1ccc(O)cc1)C(=O)N1CCC[C@H]1C(=O)N[C@@H](CCCNC(=N)N)C(=O)N[C@H](C(=O)N[C@@H](CC(N)=O)C(=O)N[C@H](C(=O)NCC(=O)N[C@@H](CO)C(=O)NCC(=O)N[C@H](C(=O)N1CCC[C@H]1C(N)=O)[C@@H](C)O)[C@@H](C)O)[C@@H](C)O)[C@@H](C)O` [Compound 1, Cys-Ser-Asn-Leu-Ser-Thr-Cys-Val-Leu-Gly-Lys-Leu-Ser-Gln-Glu-Leu-His-Lys(PEG1CH2CO-γGlu-eicosanedioic acid)-Leu-Gln-Thr-Tyr-Pro-Arg-Thr-Asn-Thr-Gly-Ser-Gly-Thr-Pro-NH2], the “Relative Activity%” value came out at 206.5%. With `CC(C)C[C@H](NC(=O)[C@H](CCCCN)NC(=O)CNC(=O)[C@H](CC(C)C)NC(=O)[C@@H](NC(=O)[C@@H]1CSSC[C@H](N)C(=O)N[C@@H](CO)C(=O)N[C@@H](CC(N)=O)C(=O)N[C@@H](CC(C)C)C(=O)N[C@@H](CO)C(=O)N[C@@H]([C@@H](C)O)C(=O)N1)C(C)C)C(=O)N[C@@H](CO)C(=O)N[C@@H](CCC(N)=O)C(=O)N[C@@H](CCC(=O)O)C(=O)N[C@@H](CC(C)C)C(=O)N[C@@H](Cc1c[nH]cn1)C(=O)N[C@@H](CCCCNC(=O)COCCOCCOCCNC(=O)CC[C@H](NC(=O)CCCCCCCCCCCCCCCCC(=O)O)C(=O)O)C(=O)N[C@@H](CC(C)C)C(=O)N[C@@H](CCC(N)=O)C(=O)N[C@H](C(=O)N[C@@H](Cc1ccc(O)cc1)C(=O)N1CCC[C@H]1C(=O)N[C@@H](CCCNC(=N)N)C(=O)N[C@H](C(=O)N[C@@H](CC(N)=O)C(=O)N[C@H](C(=O)NCC(=O)N[C@@H](CO)C(=O)NCC(=O)N[C@H](C(=O)N1CCC[C@H]1C(N)=O)[C@@H](C)O)[C@@H](C)O)[C@@H](C)O)[C@@H](C)O` [Compound 18, Cys-Ser-Asn-Leu-Ser-Thr-Cys-Val-Leu-Gly-Lys-Leu-Ser-Gln-Glu-Leu-His-Lys(PEG3CH2CO-γGlu-octadecanedioic acid)-Leu-Gln-Thr-Tyr-Pr o-Arg-Thr-Asn-Thr-Gly-Ser-Gly-Thr-Pro-NH2], the “Relative Activity%” value turned out to be 271.4%.
